Laboratory results reported in patent publication US20180290979A1, “COMPOSITION HAVING COMPOUND ACCELERATING PHOSPHORYLATION OF AMPK AS EFFECTIVE COMPONENT” (Kyoto University, priority 2015, published 2018).

Columns and labels:
[1] = system: SH-SY5Y cells; test: Induction of cell death in cancer cells; type: cell-based; settings: human neuroblast
[2] = system: ACC (acetyl-CoA carboxylase); test: Enhancement of phosphorylation of ACC, Western blotting in NIH/3T3 cells; type: cell-based, mouse
Experimental: (§1) Compound 1 was added to mouse fibroblast NIH/3T3 cells under serum-free conditions, the cells were harvested over a period of time to prepare a disrupted cell suspension, and phosphorylated AMPKα, total AMPKα, phosphorylated ACC, and total ACC were detected by Western blotting. ACC denotes acetyl-CoA carboxylase.

[3] = system: mouse fibroblast MEF; test: Inhibition of TNF-α induced apoptosis; type: cell-based
[4] = system: AMPKα; test: Enhancement of phosphorylation of AMPK, Western blotting in NIH/3T3 cells; type: cell-based, mouse
Experimental: as §1

[5] = system: liver warm ischemia reperfusion injury; test: Rat liver warm ischemia reperfusion injury model; type: in vivo; settings: LEW rats, 0.3 mg/kg before ischemia
Experimental: An experiment was performed with a rat liver warm ischemia reperfusion model, in which LEW rats of eight to nine weeks of age were subjected to laparotomy under general anesthesia by endotracheal intubation, and after 20 minutes of warm ischemia applied by blocking the hepatic portal region, the blocking was released and reperfusion was carried out. With respect to positive subjects, using AICAR (aminoimidazole-4-carboxamide rebonucleoside), which is an AMPK activator, a solvent, Compound 1 (0.3 mg/kg), and AICAR (100 mg/kg) were administered, respectively, before ischemia, and aspartate aminotransferase (AST) and alanine aminotransferase (ALT), which are liver deviation enzymes, in peripheral blood were measured six hours after the reperfusion (N=3).

[6] = system: Jurkat cells; test: Induction of cell death in cancer cells, WST-8 assay; type: cell-based; settings: human T-cell leukemia
[7] = system: NIH/3T3 cells; test: Inhibition of cell death after storage at 4° C. and rewarming to 37° C.; type: cell-based, mouse; settings: cells stored at 4° C. for 24 hours and then rewarmed to 37° C.
[8] = system: HeLa cells; test: Effect of autophagy inhibitor 3-MA on cell death induced by Compound 1, WST-8 assay; type: cell-based, human
Experimental: 3-Methyladenine (3-MA) is a class III PI3K inhibitor and is also an autophagy inhibitor. 3-MA was added to HeLa cells for one hour, and three days later, a WST-8 assay was performed to confirm the number of the cells.
Thus, it was confirmed that cell death induced by Compound 1 in cancer cells was autophagic.

[9] = system: LC3-II; test: Autophagy marker LC3-II in cancer cells, Western blotting; type: cell-based, human; settings: HeLa cells, in the presence of 4 mM of BafA, cultured for 21 hours
Experimental: Bafilomycin A1 (BafA) is an autophagy inhibitor. BafA was added to HeLa cells for one hour and then Compound 1 was added thereto. After this was cultured for 21 hours, the cells were harvested to prepare a disrupted cell suspension, and the amount of LC3-II was confirmed by Western blotting. LC3-II is an autophagy marker.

[10] = system: Mouse spinal cord macrophages; test: Inhibition of cell death in primary culture, WST-8 assay; type: cell-based; settings: serum-containing or serum-free
Experimental: Mouse spinal cord macrophages were cultured under serum-containing or serum-free conditions, and after a predetermined period of time, a WST-8 assay was performed to confirm the cell number (N=6).

[11] = system: HeLa cells; test: Induction of cell death in cancer cells, WST-8 assay; type: cell-based; settings: human cervical cancer
[12] = system: NIH/3T3 cells; test: Inhibition of cell death caused by serum starvation, WST-8 assay; type: cell-based, mouse; settings: serum-free
Experimental: NIH/3T3 cells were cultured under serum-containing or serum-free conditions, and after a predetermined period of time, a WST-8 assay was performed to confirm the cell number (N=6).
FIG. 2 is a graph comparing the viable cell numbers in the serum-starved condition in the presence and absence of Compound 1.

[13] = 16 hours after the addition (data not shown)
[14] = NIH/3T3 cells, serum-free, within 10 minutes after the addition

## O=S(=O)(Nc1cc(C(F)(F)F)ccc1N1CC[C@@H]2CCCC[C@H]2C1)c1ccc(F)cc1 [Compound 1, 4-fluoro-N-(2-((4aS,8aR)-octahydroisoquinolin-2(1H)-yl)-5-(trifluoromethyl)phenyl)benzenesulfonamide]
[1]
  cell death in cancer cells: able to induce cell death
[2]; [13]
  phosphorylation of ACC: maintained
[2]; [14]
  phosphorylation of ACC: enhanced
[3]
  TNF-α induced apoptosis (proinflammatory cell death): cell death inhibitory effect was observed
[4]; [13]
  phosphorylation of AMPK: maintained
[4]; [14]
  phosphorylation of AMPK: enhanced
[5]
  hepatic injury: alleviate hepatic injury
[5]; 20 minutes warm ischemia, six hours after the reperfusion
  elevation of liver deviation enzymes (AST, ALT) in peripheral blood: inhibited the elevation of liver deviation enzymes
[6]
  cell death in cancer cells: able to induce cell death
[7]
  cell death after cold storage and rewarming: cell death inhibitory effect was observed
[8]; HeLa cells, with 3-MA, three days
  type of cell death induced in cancer cells: autophagic
[9]
  amount of LC3-II: considerably increased
[10]
  cell death in primary culture (viable cell number): significantly inhibited cell death
[11]
  cell death in cancer cells: able to induce cell death
[12]
  cell death caused by serum starvation (viable cell number): significantly inhibited cell death

## O=S(=O)(Nc1cc(C(F)(F)F)ccc1N1CC[C@@H]2CCCC[C@H]2C1)c1ccccc1 [Compound 2, N-(2-((4aS,8aR)-octahydroisoquinolin-2(1H)-yl)-5-(trifluoromethyl)phenyl)benzenesulfonamide]
[12]
  cell death caused by serum starvation (viable cell number): cell death inhibitory effect equivalent to that of Compound 1

## Cc1ccc(S(=O)(=O)Nc2cc(C(F)(F)F)ccc2N2CC[C@@H]3CCCC[C@H]3C2)cc1 [Compound 3, N-(2-((4aS,8aR)-octahydroisoquinolin-2(1H)-yl)-5-(trifluoromethyl)phenyl)-4-toluenesulfonamide]
[12]
  cell death caused by serum starvation (viable cell number): cell death inhibitory effect equivalent to that of Compound 1

## Cn1cnc(N)c2ncnc1-2 [Compound 3-MA, 3-Methyladenine, reference compound]
[8]; HeLa cells with cell death induced by Compound 1, depending on the amount of 3-MA added
  survival rate of the cells: improved

## O=S(=O)(Nc1cc(C(F)(F)F)ccc1N1CC[C@@H]2CCCC[C@H]2C1)c1ccc(Br)cc1 [Compound 4, 4-bromo-N-(2-((4aS,8aR)-octahydroisoquinolin-2(1H)-yl)-5-(trifluoromethyl)phenyl)benzenesulfonamide]
[12]
  cell death caused by serum starvation (viable cell number): cell death inhibitory effect equivalent to that of Compound 1

## O=S(=O)(Nc1cc(C(F)(F)F)ccc1N1CC[C@@H]2CCCC[C@H]2C1)c1ccc2ccccc2c1 [Compound 6, N-(2-((4aS,8aR)-octahydroisoquinolin-2(1H)-yl)-5-(trifluoromethyl)phenyl)-2-naphthalenesulfonamide]
[12]
  cell death caused by serum starvation (viable cell number): cell death inhibitory effect equivalent to that of Compound 1
